Entries after “also recorded” stand apart in the source; their conditions may differ. Read-outs that look alike come from different tables or passages of the source. Where a SMILES comes first, the peptide text is derived from it. Bridges are numbered along the chain shown (N, C = ends).
Assays:
HIV-1 strain IIIB = assay: HIV-1 IIIB infection of CD4+ PBMC, p24 antigen ELISA; type: cell-based; conditions: for inhibition of HIV-1 replication (p24): CD4+ PBMC, IIIB (X4), peptide 10-20 μg/ml
Method: FIG. 5A-C. Anti-HIV-1 activity of retrocyclin. Two strains of HIV-1 and two types of human target cells were used. The IIIB strain is T-cell tropic (X4) and utilizes the CXCR4 co-receptor for entry; the JR-CSF strain is M-tropic (R5) and uses CCR5 for entry. PBMC signifies CD4^+-selected peripheral blood mononuclear cells. […] (A) Two concentrations of retrocyclin (2 μg/ml, 20 μg/ml), 20 μg/ml of the Rhesus circular defensin “RTD-1”, and 20 μg/ml of a horseshoe crab-derived peptide “T140”, reported to only prevent X4 infections, were tested in antiviral assays of against strain IIIB in H9 cells (n=2-6 per peptide; error bars indicate SEM). (B) To confirm our results with primary human cells, similar assays were performed utilizing IIIB virus and CD4^+ PBMC or (C) JR-CSF virus and CD4^+ PBMC. […] Average of duplicate experiments are reported for studies with PBMCs. Assay sensitivity=10 pg/ml.
Either HIV-1-permissive H9 cells were used as targets, or primary CD4^+ lymphocytes from HIV-1-seronegative donors generated from freshly purified peripheral blood mononuclear cells (PBMC) stimulated with a CD3-CD8 bispecific monoclonal antibody. […] These cells were maintained in RPMI containing 10% FCS supplemented with 2 mM glutamine, 100 U of penicillin/ml, 10 μg of streptomycin/ml, and 50 U of interleukin 2/ml (R10-50 media).
Examining the effect of adding retrocyclin at various times pre- and post-HIV-1 infection. […] Primary CD4^+ PBMC were incubated with HIV-IIIB (FIG. 6) or HIV-JR-CSF for 3 hours in the presence or absence of 20 μg/ml retrocyclin. The cells were subsequently washed in media, and incubated an additional 9 days. Retrocyclin (20 μg/ml) was added back to some of the cultures at time points specified in FIG. 6 and infection was monitored by p24 ELISA as previously described. […]

HIV-1 strain JR-CSF [1] = assay: HIV-1 JR-CSF infection of CD4+ PBMC, p24 antigen ELISA; type: cell-based; conditions: JR-CSF (R5), peptide 10-20 μg/ml
Method: FIG. 5A-C. Anti-HIV-1 activity of retrocyclin. Two strains of HIV-1 and two types of human target cells were used. The IIIB strain is T-cell tropic (X4) and utilizes the CXCR4 co-receptor for entry; the JR-CSF strain is M-tropic (R5) and uses CCR5 for entry. PBMC signifies CD4^+-selected peripheral blood mononuclear cells. […] (A) Two concentrations of retrocyclin (2 μg/ml, 20 μg/ml), 20 μg/ml of the Rhesus circular defensin “RTD-1”, and 20 μg/ml of a horseshoe crab-derived peptide “T140”, reported to only prevent X4 infections, were tested in antiviral assays of against strain IIIB in H9 cells (n=2-6 per peptide; error bars indicate SEM). (B) To confirm our results with primary human cells, similar assays were performed utilizing IIIB virus and CD4^+ PBMC or (C) JR-CSF virus and CD4^+ PBMC. Peptides were not cytotoxic at indicated concentrations, measured by trypan blue exclusion. Average of duplicate experiments are reported for studies with PBMCs. Assay sensitivity=10 pg/ml.
Either HIV-1-permissive H9 cells were used as targets, or primary CD4^+ lymphocytes from HIV-1-seronegative donors generated from freshly purified peripheral blood mononuclear cells (PBMC) stimulated with a CD3-CD8 bispecific monoclonal antibody. After approximately 7 days, when 98% of these cells co-expressed CD3 and CD4, they were infected with HIV-1 with or without retrocyclin or other test peptide. These cells were maintained in RPMI containing 10% FCS supplemented with 2 mM glutamine, 100 U of penicillin/ml, 10 μg of streptomycin/ml, and 50 U of interleukin 2/ml (R10-50 media).
The p24 assay results shown in FIG. 9 are on a logarithmic scale. A horizontal reference line that passes through 100 on the ordinate scale corresponds to […] of p24 antigen. Results from 3 experiments (each performed with PBMC from a different donor) are shown.

HIV-1 strain JR-CSF [2] = assay: HIV proviral DNA formation, quantitative real time PCR in CD4+-selected PBMC; type: cell-based; conditions: 20 μg/ml, MOI 0.1
From the text: FIG. 13. Retrocyclin and RC-101 inhibited the formation of HIV proviral DNA. Retrocyclin and RC-101 inhibited the formation of DNA from both early events (total HIV DNA) and later events (full-length HIV DNA) of reverse transcription. Data are an average of 2 experiments, except for RC-101 (1 experiment). “HI virus” is a heat-inactivated virus control for background levels of viral DNA.
Retrocyclin inhibits HIV replication at an early step (reverse transcription or before). To determine whether retrocyclin blocked the formation of proviral DNA in HIV-JR-CSF-inoculated CD4^+-selected PBMC, quantitative real time PCR was performed. This method is more sensitive than measuring p24 release and can detect infection even when p24 values may be affected by virus carried over from the original inoculum. CD4^+-selected PBMC (10^6 cells) were incubated in 250 μl at 37° C./5% CO2 for 3 hr with either HIV-1 strain JR-CSF (MOI=0.1), heat-inactivated virus (background control), JR-CSF+20 μg/ml retrocyclin or JR-CSF+20 μg RC-101. Cells were washed and resuspended in 1 ml R10-50 media, and incubated for an additional 9 hours. Following incubation, cells were pelleted at 300×g, removed of overlying supernatant, and stored at −80° C. until analyzed by real time PCR.

HSV-2 = assay: HSV inactivation microplate assay on ME-180 cells (MTT); type: cell-based; conditions: 2-50 μg/ml, 2 hrs with virus, 72 hrs culture
Method: FIG. 14. Inactivation of HSV-1 and HSV-2 by retrocyclin and RC-101. Retrocyclin (left panel) and RC-101 (right panel) at the indicated concentrations were incubated with herpes simplex virus, type 1 (HSV-1) or HSV-2 for 2 hrs and then added to ME-180 cell monolayers. Cells were incubated at 37° C. for 72 hrs, and cytotoxicity was measured with an MTT kit.
Some retrocyclins are slightly active against herpes simplex virus (HSV). To determine if the activity of retrocyclin against HIV-1 was specific or representative of a more global antiviral effect, it was tested its ability to prevent HSV infection in vitro. A quantitative microplate assay was used to screen retrocyclin and retrocyclin-congeners for their ability to inactivate HSV type 1 (HSV-1) and HSV-2. The assay utilized small amounts of peptide and simultaneously evaluated for peptide-induced cytotoxicity. In brief, final peptide concentrations of 2-50 μg/ml were incubated with virus stocks for 2 hrs and added directly to ME-180 human cervical carcinoma cells. Cultures were incubated at 37° C. for 72 hrs and cytotoxicity was measured using a 3-(4,5-dimethylthiazon-2-yl)-2,5-diphenyltetrazolium bromide (MTT) cell proliferation kit (Boehringer-Mannheim, Germany). Calculations to assess antiviral activity and compute “percent protection” are delineated in (90).

CD4+ PBMC = conditions: for average number of cells: 20 μg/ml peptide, CD4+ PBMC; for cytotoxicity (trypan blue exclusion): 20 μg/ml, HIV-1-infected CD4+ PBMC

CC[C@H](C)[C@@H]1NC(=O)CNC(=O)[C@H](CCCNC(=N)N)NC(=O)CNC(=O)[C@@H]2CSSC[C@H](NC1=O)C(=O)N[C@@H](CCCNC(=N)N)C(=O)N[C@H]1CSSC[C@H](NC(=O)[C@H](CCCNC(=N)N)NC(=O)[C@@H]3CSSC[C@H](NC(=O)[C@H]([C@@H](C)CC)NC1=O)C(=O)NCC(=O)N[C@@H](CCCNC(=N)N)C(=O)NCC(=O)N[C@@H]([C@@H](C)CC)C(=O)N3)C(=O)N[C@@H]([C@@H](C)CC)C(=O)N2 [RC-100, Retrocyclin] (cyclo(GICRCICGRGICRCICGR); disulfide 3-16, 5-14, 7-12)
reduction of p24 concentration (HIV-1 strain IIIB; 20 μg/ml added 24 hours after initial infection): ~1000 fold | inhibition of HIV-1 replication (p24) (HIV-1 strain IIIB): complete suppression; also recorded: uniformly protective | inhibition of HIV-1 replication (p24) (HIV-1 strain JR-CSF [1]): complete suppression; also recorded: uniformly protective | formation of HIV-1 proviral DNA (HIV-1 strain JR-CSF [2]): inhibited the formation of HIV-1 proviral DNA | protection against HSV-2 (HSV-2): modest protection | average number of cells (CD4+ PBMC; IIIB): 1.68e+06 mL⁻¹ | average number of cells (CD4+ PBMC; JR-CSF): 1.58e+06 mL⁻¹ | average number of cells (CD4+ PBMC; no virus): 980000 mL⁻¹ | cytotoxicity (trypan blue exclusion) (CD4+ PBMC): neither 20 μg/ml retrocyclin nor RC-101 were cytotoxic

CC[C@H](C)[C@@H]1NC(=O)CNC(=O)[C@H](CCCCN)NC(=O)CNC(=O)[C@@H]2CSSC[C@H](NC1=O)C(=O)N[C@@H](CCCNC(=N)N)C(=O)N[C@H]1CSSC[C@H](NC(=O)[C@H](CCCNC(=N)N)NC(=O)[C@@H]3CSSC[C@H](NC(=O)[C@H]([C@@H](C)CC)NC1=O)C(=O)NCC(=O)N[C@@H](CCCNC(=N)N)C(=O)NCC(=O)N[C@@H]([C@@H](C)CC)C(=O)N3)C(=O)N[C@@H]([C@@H](C)CC)C(=O)N2 [RC-101, R9K-Retrocyclin]
inhibition of HIV-1 replication (p24) (HIV-1 strain IIIB): as active as retrocyclin | inhibition of HIV-1 replication (p24) (HIV-1 strain JR-CSF [1]): as active as retrocyclin | formation of HIV-1 proviral DNA (HIV-1 strain JR-CSF [2]): inhibited the formation of HIV-1 proviral DNA | protection against HSV-2 (HSV-2): nearly completely protective | cytotoxicity (trypan blue exclusion) (CD4+ PBMC): neither 20 μg/ml retrocyclin nor RC-101 were cytotoxic

Reference: patent US7314858B2, “Retrocyclins: antiviral and antimicrobial peptides” (priority 2001, dated 2008)
